In patent publication US20130236473A1, “THERAPEUTIC AGENTS AND PROPHYLACTIC AGENTS FOR SYMPTOMS ACCOMPANYING AUTOIMMUNE DISEASES, INFLAMMATORY DISEASES, ALLERGY DISEASES AND ORGAN TRANSPLANTS” (OSAKA UNIVERSITY, priority 2010, published 2013):

Assays:
[1] = test system: IL-6 amplifier; experiment: Reference Example 3: effect of growth factors on mIL-6 protein production in BC-1 cells (ELISA); format: cell-based, mouse; settings: 24 hours, hIL-6/6R and mIL-17A each 50 ng/ml, growth factor added, versus none added
Experimental: 2×10^5 mouse BC-1 cells were cultured for 24 hours in an RPMI 1640 medium containing hIL-6/6R proteins each at 50 ng/ml and mIL-17A protein at 50 ng/ml under the condition in which 100 ng/ml of mouse EGF protein (R&D Systems, Inc.), 100 ng/ml of human HB-EGF protein (R&D Systems, Inc.), 0.1, 1, 10, or 100 ng/ml of mouse epiregulin protein (R&D Systems, Inc.), 50 ng/ml of mouse VEGF protein (R&D Systems, Inc.), 50 ng/ml of mouse FGF7 protein (R&D Systems, Inc.), or 300 ng/ml of mPDGF-CC protein (R&D Systems, Inc.) was separately added. Mouse BC-1 cells cultured under the condition in which only hIL-6/6R proteins and mIL-17A protein were added served as a control group.
After the culture, the production amount of mIL-6 protein under each condition was quantified by an ELISA method in the same manner as in Reference Example 1. FIGS. 5 and 6 show the results.

[2] = test system: IL-6 amplifier; experiment: Example 1: mIL-6 protein production on IL-6 amplifier activation in BC-1 cells or MEFs (ELISA); format: cell-based, mouse; settings: 30 min pretreatment with 0.1, 1 or 10 micromoles/L ErbB1 inhibitor, then conditions (a) to (d), 24 hours, 10% FBS
Experimental: 2×10^5 mouse BC-1 cells were cultured in an RPMI 1640 medium for 24 hours under each of the following conditions: • (a) in the presence of 10% FBS, • (b) with the addition of 50 ng/ml of hIL-6 protein and 50 ng/ml of hIL-6R protein (hereinafter referred to as “hIL-6/6R proteins”) and in the presence of 10% FBS, • (c) with the addition of 50 ng/ml of mIL-17A protein and in the presence of 10% FBS, • (d) with the addition of hIL-6/6R proteins at 50 ng/ml and mIL-17A protein at 50 ng/ml and in the presence of 10% FBS, • (e) in the absence of FBS, • (f) with the addition of hIL-6/6R proteins each at 50 ng/ml and in the absence of FBS, • (g) with the addition of 50 ng/ml of mIL-17A protein and in the absence of FBS, or • (h) with the addition of hIL-6/6R proteins each at 50 ng/ml and mIL-17A protein at 50 ng/ml and in the absence of FBS.
2×10^5 mouse BC-1 cells or 2×10^5 mouse embryonic fibroblasts (MEFs) were cultured for 30 minutes in an RPMI 1640 medium, in the presence of 0.1, 1, or 10 micromoles/L of PD153065; or in the presence of 0.1, 1, or 10 micromoles/L of PD168393 (Calbiochem). […]
After the culture, the production amount of mouse IL-6 protein under each condition was quantified by an ELISA method. […]

[3] = test system: cytokine-induced arthritis mice; experiment: Clinical score of arthritis in cytokine-induced arthritis mice (F759 mice); format: in vivo, mouse
Experimental: On each of days 0, 1, and 2, 100 ng of mIL-6 protein and 100 ng of mIL-17A protein, as cytokines, were injected into the malleolus joints of 8-week-old F759 mice to induce arthritis. At the same time, on each of days 0 to 23, 10 micrograms of PD153035 dissolved in DMSO was injected into the malleolus joints (n=6). Mice injected with the cytokines and DMSO only (n=6), and mice injected with DMSO only (n=6) served as control groups.
From day 0 to day 23, symptom of arthritis was evaluated by clinical scores. Specific examples of the evaluation are described below and in FIG. 2. Specifically, for example, the clinical score is 0 if the movable range of malleolus joint is a healthy state as shown in FIG. 14(A), and the clinical score is 3 if severe arthritis develops and the movable range of malleolus joint is 60° smaller than the healthy case as shown in FIG. 14(B). Further, the clinical score is 1 if the movable range of malleolus joint is 20° smaller than the healthy case, and the clinical score is 2 if the movable range of malleolus joint is 40° smaller than the healthy case.
F759 mice used as cytokine-induced arthritis mice are genetically modified mice in which F759 mutation (in which tyrosine residue 759 (Y) is replaced by phenylalanine (F) in gp130 protein, a receptor of IL-6 protein, etc.) is introduced (Non-Patent Literature 3); and in F759 mice, dysregulation of IL-6 amplifier is observed (Non-Patent Literature 1). Dysregulation of IL-6 amplifier observed in F759 mice is believed to be caused as follows: SOCS3 protein signal transduction, which is dependent on the phosphorylation status of tyrosine residue 759 (Y759) of gp130 protein, is inhibited by F759 mutation, thereby decreasing the action of suppressing STAT3 signals via SOCS3 protein to enhance STAT3-dependent signals. It is known that autoimmune arthritis develops in almost 100% of the mice one to one-and-a-half years after birth. It is also known that arthritis develops earlier by injecting inflammatory cytokines, such as IL-6 and IL-17, into joints (e.g., malleolus joints) of the mice. […]

[4] = test system: experimental autoimmune encephalomyelitis (EAE) mice; experiment: Clinical score in experimental autoimmune encephalomyelitis (EAE) mice; format: in vivo, mouse; settings: 5 mg intraperitoneal on each of days 0 to 6, scored day 0 to 13, control DMSO
Experimental: EAE mice were made according to the method described in Non-Patent Literature 1.
200 micrograms of MOG (myelin oligodendrocyte glycoprotein) peptide (peptide comprising residues 33 to 55 of the full-length amino acid sequence of mouse MOG protein (amino acid sequence shown in SEQ ID NO: 9)) dissolved in Complete Freund's adjuvant (CFA) was administered to the tail of a 7- to 8-week-old C57/B6-strain mouse by subcutaneous injection, followed by intravenous injection of 200 nanograms of pertussis toxin (PTx).
A MOG-specific CDCT cell group was obtained according to a ordinary method from the spleen removed after feeding the above mouse for 10 days. 2×10^5 cells of the MOG-specific CDCT cells were cultured with 5×10^5 C57/B6-strain mouse bone marrow-derived dendritic cells (BMDCs) pulsed with MOG peptide in an RPMI 1640 medium containing 10% FBS in the presence of 20 ng/ml of recombinant IL-23 (rIL-23) protein in an incubator at a temperature of 37° C. to obtain a cell group containing pathogenic Th17 cells. […]
From day 0 to day 12, the clinical score in each mouse was evaluated according to the method described in Non-Patent Literature 1. […]
From day 0 to day 13, the clinical score in each mouse was evaluated according to the method described in Non-Patent Literature 1.

[5] = test system: IL-6 amplifier; experiment: Reference Example 5: mIL-6 production on IL-6 amplifier activation with epiregulin in BC-1 cells (ELISA); format: cell-based; settings: 24 hours, 100 ng/ml mouse epiregulin protein, conditions (e) to (h), inhibitor 0, 0.1, 1 or 10 micromoles/L
Experimental: After the culture, the production amount of mouse IL-6 (mIL-6) protein in each of the clones, i.e., the amount of mIL-6 protein in the medium solution, was quantified by an ELISA method. In the ELISA method, anti-mIL-6 antibody and an ELISA kit, both manufactured by eBioscience, Inc., were used. In addition, a cell proliferation assay was performed for each of the clones, using a TetraColor ONE kit (Seikagaku Corporation). […]
After the culture, the production amount of mouse IL-6 protein under each condition was quantified by an ELISA method in the same manner as in Reference Example 1. […]

[6] = test system: IL-6 amplifier; experiment: Reference Example 10: hIL-6 gene expression in human synovial fibroblasts with epiregulin (RT-PCR); format: cell-based; settings: 3 hours, 100 ng/ml epiregulin protein, inhibitor 0 or 10 micromoles/L
Experimental: In addition, the expression amounts of mIL-6 gene were quantified by a real-time RT-PCR method. The real-time RT-PCR method was performed using a GeneAmp 5700 sequence detection system (Applied Biosystems) and a SYBER green PCR Master Mix (Sigma-Aldrich Co. LLC.). The conditions of the PCR amplification were as follows: the amplification was performed in 40 cycles, each cycle consisting of thermal denaturation (94° C., 15 seconds), annealing (60° C., 30 seconds), and extension reaction (72° C., 30 seconds)). […] After the culture, the expression amount of human IL-6 gene under each condition was quantified by a RT-PCR method in the same manner as in Reference Example 9.

[7] = mIL-6 + mIL-17A days 0, 1, 2, 10 micrograms into malleolus joints on each of days 0 to 23, scored day 0 to 23

EGF protein: mouse EGF protein (R&D Systems, Inc.), ligand of ErbB1 protein (NSYPGCPSSYDGYCLNGGVCMHIESLDSYTCNCVIGYSGDRCQTRDLRWWELR)
production amount of mIL-6 protein [1]: significantly (p value <0.01) increased

C=CC(=O)Nc1ccc2ncnc(Nc3cccc(Br)c3)c2c1 [PD168393, 4-[(3-Bromophenyl)amino]-6-acrylamidoquinazoline]
increase in the expression amount of mIL-6 protein due to activation of IL-6 amplifier [2]: can be suppressed | symptom of arthritis (clinical score) ([3]; mIL-6 + mIL-17A days 0, 1, 2, 10 micrograms into malleolus joints on each of days 0 to 11, scored day 0 to 23): symptom of cytokine-induced arthritis was alleviated, or worsening of symptom of cytokine-induced arthritis was suppressed

COc1cc2ncnc(Nc3ccc(F)c(Cl)c3)c2cc1OCCCN1CCOCC1 [gefitinib, N-(3-chloro-4-fluoro-phenyl)-7-methoxy-6-(3-morpholin-4-ylpropoxy) quinazolin-4-amine]
symptom of arthritis (clinical score) [3, 7]: symptom of cytokine-induced arthritis was alleviated, or worsening of symptom of cytokine-induced arthritis was suppressed | symptom of experimental autoimmune encephalomyelitis (clinical score) [4]: symptom of experimental autoimmune encephalomyelitis was alleviated, or worsening of symptom of experimental autoimmune encephalomyelitis was suppressed

COc1cc2ncnc(Nc3cccc(Br)c3)c2cc1OC [PD153035, 4-[(3-Bromophenyl)amino]-6,7-dimethoxyquinazoline]
Increase in the amount of transcription of mIL-6 due to epiregulin protein (production amount of mouse IL-6 protein by ELISA) [5]: inhibited in a manner dependent on the addition amount | Increase in the amount of transcription of hIL-6 due to epiregulin protein [6]: inhibited in a manner dependent on the addition amount | increase in the expression amount of mIL-6 protein due to activation of IL-6 amplifier [2]: can be suppressed | symptom of arthritis (clinical score) [3, 7]: symptom of cytokine-induced arthritis was alleviated, or worsening of symptom of cytokine-induced arthritis was suppressed
